Reference: US6448251B1, “Zwitterionic-fatty acid compounds having anti-inflammatory properties” (priority 1997, dated 2002)
Like-named read-outs stand apart in the source and are kept apart here.

How the values were obtained:
[1] = test system: erythema induced by the capsaicin; experiment: Protocol II dermal irritation: capsaicin-induced erythema on human forearm, infra-red reflection; type: in vivo; conditions: 0.1% capsaicin on forearm of human volunteer; candidate applied when erythema appeared 10-15 minutes later; optical reflection at 818 nanometers measured 30 minutes later; baseline control 3.5, capsaicin only 0.5
Excerpt: A new screening method was developed to make rapid assessments on the anti-inflammatory action of the new candidates. The procedure involved the use of a natural irritant, capsaicin*, which candidate is derived from crushed hot peppers (capsicum), and measuring the amount of erythema reduction by the test candidates. Inflammatory reaction are characterzed by pain and tenderness associated with swelling and redness. Most of these clinical signs are attributed to the large influx of blood into the area. Vaso-constricting agents can reduce the amount of swelling and erythema. Hydrocortisone is, in fact, assayed by its ability to blanch the skin, which is a vasoconstrictive effect. Applying a solution of 0.1% of capsaicin to the forearm of a human volunteer will produce an erythema in less than 20 minutes, usually under five minutes. The degree of erythema is measured with an infra-red detector. An infra-red beam of light at 818 nanometers is directed into the skin over the test sie and the amount of infra-red returned to the surface by reflection indicates the amount absorbed in the skin. An untreated skin area is used as a baseline control, a capsaicin treated area is used as the negative control, and a capsaicin+hydrocortisone (a known vasoconstrictor) serves as the positive control. A positive effect means the erythema induced by the capsaicin is reduced, or is eliminated, as measured by the infra-red detector. The following reults were obtained with this evaluative protocol. The capsaicin was applied to the skin, and when erythema appeared 10-15 minutes later, the test candidate agent was applied, and the optical reflection measurements were made 30 minutes later.

[2] = intravenous injection, radiolabelled; cited from earlier work
[3] = test system: inflammation; conditions: cited from earlier work

Compound	Millivolts (reflection voltage) [1] [Millivolts]	clearance [2]	other results
HEPES oleate, sodium salt [Compound I]	3.7	–	–
NCCS(=O)(=O)O [taurine, 2-amino ethanesulfonic acid]	–	rapid clearance	anti-inflammatory activity ([3]; administered centrally): demonstrated anti-inflammatory activity; anti-inflammatory activity ([3]; administered subcutaneously or interperitoneally): not
O=S(=O)(O)CCN1CCN(CCO)CC1 [HEPES, 4-(2-Hydroxyethyl)-1-piperazine-ethanesulfonic acid]	–	rapid clearance	half-life compared with taurine [2]: significantly longer half-life; anti-inflammatory effects compared with taurine ([3]; HEPES sodium salt and the acid, Mahon et al): greater anti-inflammatory effects
C[C@]12CCC(=O)C=C1CC[C@@H]1[C@@H]2[C@@H](O)C[C@@]2(C)[C@H]1CC[C@]2(O)C(=O)CO [Hydrocortisone]	5.0	–	–
CC(=O)OCCN1CCN(CCS(=O)(=O)[O-])CC1.[Na+] [Compound VI, Hepes-Acetate Ester]	3.0	–	–
CCCCCC=CCC=CCCCCCCCC(=O)OCCN1CCN(CCS(=O)(=O)O)CC1 [Compound V, Hepes-Linoleate Ester]	3.8	–	–
